Patent publication US20050025841A1, “Therapeutic methods using herbal compositions” (priority 2001, published 2005)

Experiments:
[1] = system: polychromatic erythrocytes in the mouse bone marrow; details: CTX 30 mg/kg alone; 8000 cells
breast cancer = details: women at high risk of breast cancer, versus placebo; cited from earlier work

SMILES | Micronucleus Rate [1] | decrease in invasive cancer (breast cancer) | decrease in non-invasive breast cancer (breast cancer)
O=P1(N(CCCl)CCCl)NCCCO1 (stereo not drawn) [CTX, cyclophosphamide] | 17.3 ± 1.1 %0 | – | –
CC/C(=C(\c1ccccc1)c1ccc(OCCN(C)C)cc1)c1ccccc1 [Tamoxifen] | – | 49% | 50%
